What was measured:
[1] = In vitro elution of histrelin from HP-60D-20 polyurethane implant (Example 1); type: physicochemical; conditions: HP-60D-20 implant, approx. 37° C.
Protocol: HP-60D-20 is extruded to tubes with thickness of 0.30 mm with inside diameter of 1.75 mm. The tubes are then cut into 25 mm in length. One side of the tube is sealed with heat using a heat sealer. The sealing time is less than one minute. Four pellets of histrelin acetate are loaded into the tube. Each pellet weighs approximately 13.5 mg for a total of 54 mg. Each pellet is comprised of a mixture of 98% histrelin and 2% stearic acid. The second end open of the tube is sealed with heat in the same way as for the first end. The loaded implant is then conditioned and primed. The conditioning takes place at room temperature in a 0.9% saline solution for one day. Upon completion of the conditioning, the implant undergoes priming. The priming takes place at room temperatures in a 1.8% saline solution for one day. Each implant is tested in vitro in a medium selected to mimic the pH found in the human body. The temperature of the selected medium was kept at approximately 37° C. during the testing. The release rates are shown on FIG. 4 and Table 2.

[2] = Release rates of histrelin from Tecophilic, Tecoflex and Carbothane polyurethane implants (Example 3); type: physicochemical; conditions: for Release rate normalized to surface area of the implant: 2% SA, 50 mg API
Source text: Tables 2A-C show release rates of histrelin from three different classes of polyurethane compounds (Tecophilic®, Tecoflex® and Carbothane®). The release rates have been normalized to surface area of the implant, thereby adjusting for slight differences in the size of the various implantable devices. Histrelin is very soluble in water. Typically, a Log P value of greater than about 2.0 is considered to be not readily soluble in aqueous solution. The polyurethanes were selected to have varying affinities for water soluble active agents and varying flexibility (as indicated by the variation in flex modulus). […] Polyurethanes are available or can be prepared, for example, with a range of EWCs or flex moduli (Table 2). Tables 2A-C show normalized release rates for various active ingredients from polyurethane compounds. Tables 2D-F show the non-normalized release rates for the same active ingredients, together with implant composition.

Compound: CCNC(=O)[C@@H]1CCCN1C(=O)[C@H](CCCNC(=N)N)NC(=O)[C@H](CC(C)C)NC(=O)[C@@H](Cc1cn(Cc2ccccc2)cn1)NC(=O)[C@H](Cc1ccc(O)cc1)NC(=O)[C@H](CO)NC(=O)[C@H](Cc1c[nH]c2ccccc12)NC(=O)[C@H](Cc1cnc[nH]1)NC(=O)[C@@H]1CCC(=O)N1 [Histrelin Acetate, Histrelin acetate]
- Histrelin elution rate ([1]; week 1 of elution): 451.733 µg/day
- Histrelin elution rate ([1]; week 2 of elution): 582.666 µg/day
- Histrelin elution rate ([1]; week 3 of elution): 395.9 µg/day
- Histrelin elution rate ([1]; week 4 of elution): 310.29 µg/day
- Histrelin elution rate ([1]; week 5 of elution): 264.92 µg/day
- Histrelin elution rate ([1]; week 6 of elution): 247.17 µg/day
- Histrelin elution rate ([1]; week 7 of elution): 215.93 µg/day
- Histrelin elution rate ([1]; week 8 of elution): 201.78 µg/day
- Histrelin elution rate ([1]; week 9 of elution): 183.22 µg/day
- Histrelin elution rate ([1]; week 10 of elution): 174.99 µg/day
- Histrelin elution rate ([1]; week 11 of elution): 167.72 µg/day
- Histrelin elution rate ([1]; week 12 of elution): 158.37 µg/day
- Histrelin elution rate ([1]; week 13 of elution): 153.95 µg/day
- Histrelin elution rate ([1]; week 14 of elution): 146.46 µg/day
- Histrelin elution rate ([1]; week 15 of elution): 139.83 µg/day
- Histrelin elution rate ([1]; week 16 of elution): 129.6 µg/day
- Histrelin elution rate ([1]; week 17 of elution): 124.46 µg/day
- Histrelin elution rate ([1]; week 18 of elution): 118.12 µg/day
- Histrelin elution rate ([1]; week 19 of elution): 120.35 µg/day
- Release rate normalized to surface area of the implant ([2]; Carbothane PC-3595A, F.M.: 4,500): 0.2 μg/day/cm^2
- Non-normalized release rate ([2]; Carbothane PC-3595A, F.M.: 4,500, ID 1.85 mm, wall 0.20 mm, L 25.25 mm, 1.625 cm^2): 0.4 µg/day
- Release rate normalized to surface area of the implant ([2]; Tecoflex EG 100A, F.M.: 10,000): 0.3 μg/day/cm^2
- Non-normalized release rate ([2]; Tecoflex EG 100A, F.M.: 10,000, ID 1.85 mm, wall 0.20 mm, L 25.56 mm, 1.645 cm^2): 0.5 µg/day
- Release rate normalized to surface area of the implant ([2]; Tecophilic HP-60D-20, 15% EWC): 93 μg/day/cm^2
- Non-normalized release rate ([2]; Tecophilic HP-60D-20, 15% EWC, ID 1.80 mm, wall 0.30 mm, L 24.5 mm, 1.616 cm^2): 150 µg/day
- Release rate normalized to surface area of the implant ([2]; Tecophilic HP-60D-35, 24% EWC): 248 μg/day/cm^2
- Non-normalized release rate ([2]; Tecophilic HP-60D-35, 24% EWC, ID 1.80 mm, wall 0.30 mm, L 24.5 mm, 1.616 cm^2): 400 µg/day
- Release rate normalized to surface area of the implant ([2]; Tecophilic HP-60D-60, 31% EWC): 309 μg/day/cm^2
- Non-normalized release rate ([2]; Tecophilic HP-60D-60, 31% EWC, ID 1.80 mm, wall 0.30 mm, L 24.5 mm, 1.616 cm^2): 500 µg/day
